# Results as given in patent US20220098265A1 (MEDIMMUNE LIMITED, priority 2012, published 2022).
# Numbered stars: 1 amine (or outer) side, 2 acyl side, 3 side chain; on linkers, the order of the positions; unused ones are H or OH. Side chains are listed from the residue outwards. Peptide text beside a SMILES is read from it. * marks the point of attachment. γGlu = O=C(O)[C@H](CCC(=O)[*:2])N[*:1]; Palmitoyl = CCCCCCCCCCCCCCCC(=O)*
# Assays:
# physchem = settings: pH 7.2
# Method: Peptide solubility was assessed in three different isotonic formulations: • 1. […] Final formulation pH=7.2 • 2. Back up formulation 1 (BF1)=0.05M Tris, 50 mM Arginine/Proline. Final formulation pH=8.0 • 3. […] Final formulation pH=7.0
# [1] = Peptide solubility in buffers (A280); settings: target 1 mg/ml
# Human GlucR = Human GlucR (Homo sapiens, UniProt P47871); test: cAMP assay 2 in 4.4% human serum albumin, human GlucR; settings: assay 2, 4.4% Human Serum Albumin; relative potency GlucR (vs glucagon)/relative potency GLP1R (vs GLP1)
# [2] = Stability testing of peptides in rat plasma; format: in vitro ADME
# Method: Stability testing of peptides in plasma. The stability in plasma of the peptides […], […], […] and […] was determined as follows. […] The frozen blank plasma from human, rat and mouse had been thawed and heated to a temperature of 37° C. before addition of the stock solution. The spiked plasma samples were gently mixed and allowed to equilibrate for about 5 minutes before start of experiment. The plasma samples were incubated for 48 hours in a Galaxy® CO2 incubator at 37° C. […] The samples were stored at -70° C. until analysis. Plasma samples were assayed as follows. The 30 μL plasma samples were protein precipitated with […] of cold ethanol in a 96-well low bind plate (Eppendorf Protein LoBind). After mixing and centrifugation 100 μl the supernatant was transferred to a new plate and 1 μl was injected onto an analytical column. The analysis was performed using a μLC-system ([…]) coupled to a medium high resolution mass spectrometer (Perkin Elmer PenTOF) with positive electrospray ionisation. […] Flow: 0.1 ml/min using a slow reversed phase gradient. […] Products with +1 mass may arise from deamidation at amide groups of glutamine or at the C-terminus. Cleavage products arise from the action of the protease DPP IV in plasma. […] Peaks were integrated and % remaining peptide was calculated: […] […]
# Rat GlucR = Rat GlucR (Rattus norvegicus, UniProt P30082); test: cAMP assay 2 in […] rat serum albumin, rat GlucR; settings: assay 2, […] Rat Serum Albumin; relative potencies vs natural ligands
# Mouse GlucR = Mouse GlucR (Mus musculus, UniProt Q61606); test: cAMP assay 2 in […] mouse serum albumin, mouse GlucR; settings: assay 2, […] Mouse Serum Albumin; relative potencies vs natural ligands
# [3] = Stability testing of peptides in human plasma; format: in vitro ADME
# Method: (§1) Stability testing of peptides in plasma. The stability in plasma of the peptides […], […], […] and […] was determined as follows. […] The frozen blank plasma from human, rat and mouse had been thawed and heated to a temperature of 37° C. before addition of the stock solution. The spiked plasma samples were gently mixed and allowed to equilibrate for about 5 minutes before start of experiment. The plasma samples were incubated for 48 hours in a Galaxy® CO2 incubator at 37° C. […] The samples were stored at -70° C. until analysis. Plasma samples were assayed as follows. The 30 μL plasma samples were protein precipitated with […] of cold ethanol in a 96-well low bind plate (Eppendorf Protein LoBind). After mixing and centrifugation 100 μl the supernatant was transferred to a new plate and 1 μl was injected onto an analytical column. The analysis was performed using a μLC-system ([…]) coupled to a medium high resolution mass spectrometer (Perkin Elmer PenTOF) with positive electrospray ionisation. […] Flow: 0.1 ml/min using a slow reversed phase gradient. […] Products with +1 mass may arise from deamidation at amide groups of glutamine or at the C-terminus. Cleavage products arise from the action of the protease DPP IV in plasma. Both the degradation of the peptides and formation of peptide products were reported in percentage of the initial peptide concentration. Peaks were integrated and % remaining peptide was calculated: […] Levels of deamidation and DPP IV cleavage were low for […] and […].
# [4] = Stability testing of peptides in mouse plasma; format: in vitro ADME
# Method: as §1
# DIO mice = test: Diet induced obesity (DIO) mouse model, study A; format: in vivo; settings: for HOMA / Hepatic TG / Plasma NEFA / Plasma TG: day 14; for FGF21 / BeHy: day 14 (dose from row order); for Glucose / Insulin: day 14, 4-hour fasting; for BeHy: beta-hydroxybutyrate
# Source text: Female C57/B16JHsdOla (obtained from Harlan Laboratories, UK) were started on a high fat diet of D12492 (Research Diets, NJ, USA) and a chocolate confection, delicato ball (Delicata Bakverk, Sweden) at 9-11 weeks of age, and were maintained on the diet for 16 weeks prior to arrival to the animal facility, during a three week acclimatizion period and during drug treatment, caloric content of the two components of the diet is shown in Table 11. The mice were divided into 9 groups (n=5-6), and treatment was started at 29 weeks of age.
# The body weight of the animals was monitored daily throughout the dosing period. At day 14, blood samples for the measurement of plasma glucose and insulin from conscious mice were obtained after a 4-hour fasting period. Mice were then anaesthetized using isofluorane and terminal blood was collected from the capillary bed behind the eye. The following parameters were measured: blood chemistry measurements of triglycerides, total cholesterol, non-esterified fatty acids (NEFA), beta-hydroxybutyrate and fibroblast growth factor 21 (FGF21) (Tables 14 and 15 below).
# human serum albumin = human serum albumin (Homo sapiens, UniProt P02768); test: Fraction of free peptide at plasma concentration of albumin, calculated from variation in cAMP generation with HSA concentration; format: in vitro ADME; design: purchased Sigma Aldrich; settings: calculated from variation in cAMP generation with HSA concentration
# Chain of human serum albumin (P02768 25-609): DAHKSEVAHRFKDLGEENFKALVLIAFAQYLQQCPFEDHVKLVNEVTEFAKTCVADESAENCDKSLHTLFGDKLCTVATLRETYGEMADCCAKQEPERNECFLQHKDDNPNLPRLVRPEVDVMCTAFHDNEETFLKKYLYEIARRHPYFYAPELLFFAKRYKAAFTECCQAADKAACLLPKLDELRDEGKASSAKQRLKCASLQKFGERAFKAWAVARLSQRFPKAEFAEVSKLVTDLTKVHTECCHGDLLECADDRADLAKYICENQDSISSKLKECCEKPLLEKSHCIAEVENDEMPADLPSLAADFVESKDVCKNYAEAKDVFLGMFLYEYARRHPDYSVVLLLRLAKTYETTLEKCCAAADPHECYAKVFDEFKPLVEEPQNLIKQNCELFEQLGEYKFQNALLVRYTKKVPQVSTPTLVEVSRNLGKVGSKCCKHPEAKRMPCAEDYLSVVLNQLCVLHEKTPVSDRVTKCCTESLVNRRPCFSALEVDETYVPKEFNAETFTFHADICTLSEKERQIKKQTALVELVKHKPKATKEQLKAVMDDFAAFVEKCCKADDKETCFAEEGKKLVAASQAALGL
# Chain of Rat GlucR (P30082 27-485): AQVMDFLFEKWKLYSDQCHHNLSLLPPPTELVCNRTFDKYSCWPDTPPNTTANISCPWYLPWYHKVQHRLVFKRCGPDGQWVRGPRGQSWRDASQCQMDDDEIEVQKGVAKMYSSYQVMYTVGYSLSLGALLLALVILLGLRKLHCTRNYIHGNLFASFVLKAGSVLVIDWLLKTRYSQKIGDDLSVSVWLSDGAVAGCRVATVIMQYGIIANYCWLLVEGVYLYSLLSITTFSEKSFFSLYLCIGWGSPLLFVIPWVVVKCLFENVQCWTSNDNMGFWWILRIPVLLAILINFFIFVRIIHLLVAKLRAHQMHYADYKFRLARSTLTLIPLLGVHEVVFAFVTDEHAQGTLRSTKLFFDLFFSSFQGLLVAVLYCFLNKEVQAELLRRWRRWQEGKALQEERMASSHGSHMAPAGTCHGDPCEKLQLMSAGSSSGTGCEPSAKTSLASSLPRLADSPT
# Chain of Mouse GlucR (Q61606 27-485): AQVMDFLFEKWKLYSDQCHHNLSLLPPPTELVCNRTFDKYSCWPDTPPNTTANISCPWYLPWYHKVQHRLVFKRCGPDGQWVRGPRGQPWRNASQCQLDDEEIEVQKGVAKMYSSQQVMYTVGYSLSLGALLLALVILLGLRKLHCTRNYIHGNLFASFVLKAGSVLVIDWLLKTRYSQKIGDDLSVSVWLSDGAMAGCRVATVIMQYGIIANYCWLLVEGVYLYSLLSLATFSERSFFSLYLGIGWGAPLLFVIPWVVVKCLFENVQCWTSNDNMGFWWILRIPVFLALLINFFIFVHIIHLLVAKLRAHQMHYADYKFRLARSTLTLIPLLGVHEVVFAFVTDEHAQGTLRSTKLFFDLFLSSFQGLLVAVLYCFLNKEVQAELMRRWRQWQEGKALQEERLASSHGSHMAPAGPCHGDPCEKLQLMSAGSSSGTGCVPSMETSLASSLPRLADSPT
# Chain of Human GlucR (P47871 26-477): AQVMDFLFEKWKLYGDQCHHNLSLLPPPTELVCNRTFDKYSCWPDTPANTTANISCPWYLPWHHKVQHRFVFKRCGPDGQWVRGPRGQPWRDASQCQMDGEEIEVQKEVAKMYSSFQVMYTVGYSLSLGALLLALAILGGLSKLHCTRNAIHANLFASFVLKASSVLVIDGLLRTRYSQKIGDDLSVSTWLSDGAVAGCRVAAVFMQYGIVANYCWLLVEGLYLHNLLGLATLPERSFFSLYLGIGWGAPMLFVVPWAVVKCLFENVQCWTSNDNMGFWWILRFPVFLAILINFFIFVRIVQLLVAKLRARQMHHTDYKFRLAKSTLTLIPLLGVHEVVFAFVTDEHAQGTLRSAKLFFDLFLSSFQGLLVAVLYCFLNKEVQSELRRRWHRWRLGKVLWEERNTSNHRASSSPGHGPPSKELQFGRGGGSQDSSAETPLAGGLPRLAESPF
smiles,measurement,setting,value
CCCCCCCCCCCCCCCC(=O)N[C@@H](CCC(=O)NCCCC[C@H](NC(=O)[C@H](CCCCN)NC(=O)[C@H](CO)NC(=O)[C@H](Cc1ccc(O)cc1)NC(=O)[C@H](CC(=O)O)NC(=O)[C@H](CO)NC(=O)[C@@H](NC(=O)[C@H](Cc1ccccc1)NC(=O)[C@@H](NC(=O)CNC(=O)[C@H](CCC(N)=O)NC(=O)[C@H](CO)NC(=O)[C@@H](N)Cc1c[nH]cn1)[C@@H](C)O)[C@@H](C)O)C(=O)N[C@@H](CC(C)C)C(=O)N[C@@H](CC(=O)O)C(=O)N[C@@H](CO)C(=O)N[C@@H](CCC(=O)O)C(=O)N[C@@H](CCCNC(=N)N)C(=O)N[C@@H](C)C(=O)N[C@@H](CCCNC(=N)N)C(=O)N[C@@H](CC(=O)O)C(=O)N[C@@H](Cc1ccccc1)C(=O)N[C@H](C(=O)N[C@@H](C)C(=O)N[C@@H](Cc1c[nH]c2ccccc12)C(=O)N[C@@H](CC(C)C)C(=O)N[C@H](C(=O)N[C@@H](C)C(=O)NCC(=O)NCC(N)=O)C(C)C)C(C)C)C(=O)O [Peptide G730] (H-HSQGTFTSDYSKK([γGlu-Palmitoyl])LDSERARDFVAWLVAGG-NH2; N-terminus assumed),solubility,physchem,≥ 5000 µg/mL
same,Conc. (mg/ml) A280,"[1]; Glutamate pH 4.5, 100 mM",0.83 mg/mL
same,Conc. (mg/ml) A280,"[1]; Phosphate pH 6.5, 100 mM",0.83 mg/mL
same,Conc. (mg/ml) A280,"[1]; Phosphate pH 7.5, 100 mM",0.85 mg/mL
same,Conc. (mg/ml) A280,"[1]; Phosphate, pH = 6, 100 mM",0.14 mg/mL
same,Conc. (mg/ml) A280,"[1]; Tris pH 7.5, 100 mM",0.83 mg/mL
same,Conc. (mg/ml) A280,"[1]; Tris pH 8.0, 100 mM",1.1 mg/mL
same,Human GlucR/GLP1R Ratio,Human GlucR,0.122
same,% +1 prod,[2],58%
same,% DPP cleaved product/+1 DPP cleaved product,[2],2%
same,Rat GlucR/GLP1R Ratio,Rat GlucR,0.06
same,Mouse GlucR/GLP1R Ratio,Mouse GlucR,0.04
same,% +1 prod,[3],<1%
same,% DPP cleaved product/+1 DPP cleaved product,[3],<1%
same,% +1 prod,[4],15%
same,% DPP cleaved product,"[4]; Mouse Plasma at 24 h, 37° C., column % DPP cleaved product/+1 DPP cleaved product, first figure",14%
same,% +1 DPP cleaved product,"[4]; Mouse Plasma at 24 h, 37° C., column % DPP cleaved product/+1 DPP cleaved product, second figure",5%
same,BW day 14 (% change of vehicle mean),DIO mice; 10 nmol/kg s.c. twice daily for 14 days,−7.5%
same,HOMA,DIO mice; 10 nmol/kg s.c. twice daily,3.3
same,Hepatic TG,DIO mice; 10 nmol/kg s.c. twice daily,9.0 g TG/100g Tissue
same,Plasma NEFA,DIO mice; 10 nmol/kg s.c. twice daily,0.28 mM
same,Plasma TG,DIO mice; 10 nmol/kg s.c. twice daily,0.21 mM
same,FGF21,DIO mice; 10 nmol/kg s.c. twice daily,1963 pg/mL
same,Glucose,DIO mice; 10 nmol/kg s.c. twice daily,7.2 mM
same,Insulin,DIO mice; 10 nmol/kg s.c. twice daily,0.4 nM
same,BW day 14 (% change of vehicle mean),DIO mice; 20 nmol/kg s.c. twice daily for 14 days,−15.6%
same,HOMA,DIO mice; 20 nmol/kg s.c. twice daily,1.7
same,Hepatic TG,DIO mice; 20 nmol/kg s.c. twice daily,17.7 g TG/100g Tissue
same,Plasma NEFA,DIO mice; 20 nmol/kg s.c. twice daily,0.26 mM
same,Plasma TG,DIO mice; 20 nmol/kg s.c. twice daily,0.2 mM
same,FGF21,DIO mice; 20 nmol/kg s.c. twice daily,2236 pg/mL
same,Glucose,DIO mice; 20 nmol/kg s.c. twice daily,6.7 mM
same,Insulin,DIO mice; 20 nmol/kg s.c. twice daily,0.2 nM
same,insulin sensitivity index HOMA,"DIO mice; 20 nmol/kg, result in words",significantly improved
same,change in weight at day 14 as compared to the vehicle-treated animals,DIO mice; 50 nmol/kg,about 24%
same,BW day 14 (% change of vehicle mean),DIO mice; 50 nmol/kg s.c. twice daily for 14 days,−24.0%
same,HOMA,DIO mice; 50 nmol/kg s.c. twice daily,2.1
same,Hepatic TG,DIO mice; 50 nmol/kg s.c. twice daily,28.1 g TG/100g Tissue
same,Plasma NEFA,DIO mice; 50 nmol/kg s.c. twice daily,0.32 mM
same,Plasma TG,DIO mice; 50 nmol/kg s.c. twice daily,0.23 mM
same,FGF21,DIO mice; 50 nmol/kg s.c. twice daily,5294 pg/mL
same,Glucose,DIO mice; 50 nmol/kg s.c. twice daily,5.9 mM
same,Insulin,DIO mice; 50 nmol/kg s.c. twice daily,0.3 nM
same,Total plasma cholesterol,"DIO mice; at all doses, result in words",lowered
same,BeHy,DIO mice; 10 nmol/kg s.c. twice daily,428 µmol/L
same,BeHy,DIO mice; 20 nmol/kg s.c. twice daily,750 µmol/L
same,BeHy,DIO mice; 50 nmol/kg s.c. twice daily,1477 µmol/L
same,effect on body weight over the 14 day dosing period,"DIO mice; study A, FIGS. 1-4",dose dependent and continuous weight loss
same,glucose levels at day 14,"DIO mice; study A, result in words",dose-dependent reduction
same,free peptide at 4.4% HSA,human serum albumin,0.85%
